# Results taken from patent publication US10420759B2, “Small molecule therapies for pulmonary hypertension” (Creighton University, priority 2016, dated 2019).
# What was measured:
# [1] = test system: small pulmonary arteries in mouse precision-cut lung slices; experiment: Relaxation of pre-constricted small pulmonary arteries in mouse precision-cut lung slices; assay type: cell-based; conditions: for maximal relaxation: % relaxation of pre-constriction to 100 nM 5-HT; for EC50: Mus musculus, pre-constricted with 100 nM 5-HT
# Experimental: Precision cut lung slices were prepared using a modification of previously reported procedures (see e.g., Jiang et al., 2010, J. Pharmacol. Exp. Ther. 334:703-709) and based on the method described by Perez-Joghbi and Sanderson (see e.g., Perez-Joghbi, J. F. and Sanderson, M. J., Am. J. Physiol., 2007, 293:L1000-L1011). Mice were euthanized with CO2, a 2 cm long incision was made in the midline of the neck above the trachea and the trachea was isolated from surrounding tissue. The trachea was cut open and cannulated with PE 90 plastic tubing. A solution of 2% low melting point agarose (Sigma-Aldrich, St. Louis Mo.) in Hanks Buffered Salt solution (HBSS) was prepared at 37° C. Lungs were inflated by injecting 1.2 ml of 2% agarose followed by 0.2 ml of air through the tracheal cannula. The chest was then opened along the midline and the heart was exposed. A solution of 6% gelatin (Sigma-Aldrich, St. Louis Mo.) was prepared in HBSS and 0.4 mL was injected into the right ventricle using a 1 mL syringe and 26 gauge needle, to fill the pulmonary arteries with gelatin. The mouse was cooled to 4° C. for 15 min to harden the agarose and gelatin to stiffen the lung for sectioning. The individual lung lobes were then isolated, glued to a platform and sliced perpendicular to the long axis of the lung. 150 μm thick slices were prepared in ice cold HBSS using an EMS-4000 tissue slicer (Electron Microscopy Sciences, Fort Wash. Pa.). The slices were maintained in sterile, serum-free Dulbecco's modified Eagle's medium (DMEM, Gibco, Grand Island, N.Y.) containing penicillin (100 U/mL, Cellgro, Manassas, Va.), streptomycin (100 μg/mL, Cellgro, Manassas, Va.) and amphotericin B (1.5 μg/mL, Cellgro, Manassas, Va.) at 37° C. and 5% CO2+95% air in a humidified incubator for not more than 3 days.
# The method used to measure constriction and relaxation of pulmonary arteries in lung slices is a modification of a method previously described that was used to measure constriction and relaxation of mouse airways (see e.g., Jiang et al., 2010 J. Pharmacol. Exp. Ther. 334:703-709). Lung slices were placed on glass coverslips in a 1 mL volume incubation chamber and held in place with nylon mesh (Small Parts Inc, Miami Lakes, Fla.). The chamber was placed on the stage of a Nikon (Melville, N.Y.) TE200 inverted microscope at room temperature and slices incubated in HBSS containing 10 mM HEPES buffer. Pulmonary arteries in lung slices were imaged using a 20× objective and images recorded using a CoolSNAP HQ2 digital camera (Photometrics, Tucson Ariz.). Images in the absence and the presence of the vasoconstrictor 5-HT (Sigma-Aldrich, St. Louis, Mo.) and the vasorelaxants pirfenidone (Sigma-Aldrich, St. Louis Mo.) and CXN-8, CXN-9 and CXN-16 were collected and vasoconstriction and vasorelaxation was calculated by pixel summing of the cross-sectional area of the pulmonary artery lumen before and after addition of the test agent, using ImageJ software (http://imagej.nih.gov). A decrease in cross-sectional area was defined as vasoconstriction while an increase in cross-sectional area was defined as vasorelaxation, as shown in FIGS. 1A-1B.
# First, small pulmonary arteries were pre-constricted in mouse precision-cut lung slices with 100 nM 5-HT, a concentration that causes submaximal constriction of pulmonary arteries, as shown in FIG. 1A.
# [2] = test system: eNOS−/− mice; experiment: Right ventricular systolic pressure (RVSP) in eNOS-knockout mice, acute intravenous CXN-8; assay type: in vivo, mouse; conditions: 4.6 mg/kg i.v. via femoral vein, baseline 40.7±7.6 mmHg
# Experimental: (§1) Mice (20-25 g) were anesthetized via an intraperitoneal (i.p.) injection of a combination of xylazine (10 mg/kg body weight) and ketamine (100 mg/kg body weight). One-half dose was given as supplemental anesthesia as needed. Animals were placed on a heating pad set to maintain body temperature at approximately 37° C. The neck and upper chest area were cleaned with 70% isopropyl alcohol and a 2 cm long incision was made anterior to the manubrium on the right side and above the jugular fossa. The jugular fossa was identified and the external jugular vein was isolated from surrounding tissue. The anterior projection of the jugular vein was tied off with 8-0 silk suture and a 1 mm incision was made in the jugular vein. A 1 French Mikro-Tip pressure catheter (Millar Inc, Houston, Tex.) catheter was inserted into the jugular vein and advanced through the right atrium into the right ventricle to measure ventricular systolic pressure of mice via a pressure transducer using PowerLab monitoring hardware and software (AD Instruments, Colorado Springs, Colo., USA). The pressure catheter was secured in place using an 8-0 silk suture tied around the catheterized jugular vein. […]
# (§2) CXN-8 was administered intravenously in a dose-escalation manner in 15 minute intervals from doses of 0.14 mg/kg to 4.6 mg/kg. Hemodynamic indices, including heart rate (HR) and RVSP were measured. […]
# [3] = test system: mouse isolated extralobar pulmonary arteries; experiment: Relaxation of pre-constricted mouse isolated extralobar pulmonary artery rings (isometric tension); assay type: cell-based; conditions: for EC50: Mus musculus
# [4] = test system: mouse isolated extralobar pulmonary arteries; experiment: as above; assay type: cell-based; conditions: for EC50: Mus musculus; for relaxation: 1 μM
# Description: Mouse extralobar pulmonary arteries were isolated and prepared using a modification of a previously reported procedure (see e.g., Bockman et al., 1996, J. Pharmacol. Exp. Ther. 278:1235-1243). Mice were euthanized with CO2, the chest was opened, and the heart and lung combined were isolated from surrounding tissue. The main pulmonary artery was isolated from its origin at the right ventricle, past its bifurcation into the right and left pulmonary arteries. The artery segment was removed and placed in Krebs solution (composition in mM: NaCl 126, KCl 5.5, CaCl2 2.5, NaH2PO4 1.2, MgCl2 1.2, NaHCO3 25, dextrose 11.1, Na2Ca EDTA 0.029) equilibrated with 95%02-5% CO2 (pH 7.4). The pulmonary artery segment was cleaned of connective tissue and the main pulmonary artery and its right and left branches were cut into 2 mm long rings. The rings were mounted using 2 stainless steel pins (0.1 mm in diameter) passed through the artery lumen. One pin was attached to a Kent isometric force transducer (Kent Scientific Corp, Torrington Conn.) for measurement of isometric tension while the second pin was held in a fixed position. This allowed for measurement of contraction and relaxation of the ring in the circular direction. Mounted rings were placed in 10 mL of Krebs solution in glass muscle chambers (Radnoti, Monrovia, Calif.) gassed with 95% 02-5% CO2, and maintained at 37° C. Rings were washed with Krebs solution and equilibrated for 90-120 min at a passive resting tension of 150 mg before experiments with test agents were started.
# Mouse isolated extralobar pulmonary arteries were pre-constricted with 250 nM 5-HT, a concentration that causes submaximal constriction, as shown in FIG. 2A. Cumulative addition of pirfenidone and CXN-8 caused a concentration-dependent relaxation of mouse pulmonary arteries with a maximal relaxation of 84.9±3.4% and 76.7±7.0%, respectively, as shown in FIG. 2B.
# The endothelium was removed from pulmonary arteries by inserting a small (200 μm diameter) wire into the inside lumen of the arteries and gently rubbing the internal surface. To test for the presence of functional endothelium, rings with and without rubbing were contracted with 250 nM 5-HT followed by relaxation using 1 μM of the endothelium dependent vasorelaxant acetylcholine. Rings that relaxed by 5% or less were considered as lacking the endothelium. Rings with and without endothelium were used to test the relaxant effects of CXN-8.
# The synthesis of NO is mediated by a family of NO synthase enzymes. It is well accepted that acetylcholine induces relaxation of pulmonary arteries via endothelium-dependent NO production. Nitric oxide production was inhibited in pulmonary arteries by 30 min incubation with the nitric oxide synthesis inhibitor nitro-L-arginine methyl ester (L-NAME, 100 μM). To test for nitric oxide synthase inhibition by L-NAME, rings were contracted with 250 nM 5-HT followed by relaxation using 1 μM of the nitric oxide dependent vasorelaxant acetylcholine. The relaxant effects of CXN-8 were then tested in rings in the absence (with nitric oxide) and the presence (without nitric oxide) of L-NAME.
# [5] = test system: hypoxic mice (C57BL/6); experiment: RVSP in chronic hypoxia model of PH in mice, acute intravenous CXN-8; assay type: in vivo, mouse; conditions: 1.4 mg/kg i.v. via femoral vein, baseline 56.4±1.0 mmHg
# Experimental: as §1, §2
# [6] = test system: RGS2−/− mice; experiment: RVSP in RGS2 knockout mice, acute intravenous CXN-8; assay type: in vivo, mouse; conditions: RGS2 KO mice, 4.6 mg/kg i.v. via femoral vein; baseline 36.7±1.9 mmHg
# Experimental: as §1, §2
# [7] = 250 nM 5-HT, pre-treatment with L-NAME (100 μM)
# [8] = endothelium-denuded arteries, 250 nM 5-HT
# [9] = intact rings pre-constricted with 250 nM 5-HT
structure (smiles),measurement,setting,value
"Cc1ccc(=O)n(-c2ccc(OCCCN3CCCCC3)cc2)c1 [CXN-8, 5-methyl-1-(4-(3-(piperidin-1-yl)propoxy)phenyl)pyridin-2(1H)-one]",maximal relaxation,[1],77.1±9.6%
same,EC50,[1],0.0056 µM
same,RVSP after treatment,[2],29.3±1.5 mmHg
same,EC50,[3]; ET-1 pre-contracted arteries,0.0217 µM
same,EC50,[3]; U46619 pre-contracted arteries,0.0403 µM
same,maximal relaxation,[3]; U46619 (20 nM) pre-contracted arteries,70.6±7.1%
same,maximal relaxation,"[3]; endothelin 1 (ET-1, 10 nM) pre-contracted arteries",86.6±4.1%
same,maximal relaxation,"[4]; 250 nM 5-HT, absence of L-NAME",74.5±7.4%
same,maximal relaxation,[4]; [7],45.5±6.2%
same,EC50,"[4]; 250 nM 5-HT, absence of L-NAME",0.0056 µM
same,EC50,[4]; [7],0.0099 µM
same,EC50,[4]; [8],0.0109 µM
same,EC50,[4]; [9],0.0052 µM
same,maximal relaxation,[4]; [8],47.2±2.9%
same,maximal relaxation,[4]; [9],76.7±7.0%
same,RVSP after treatment,[5],37.4±1.7 mmHg
same,RVSP after treatment,[6],19.6±0.9 mmHg
"Cc1ccc(=O)n(-c2ccc(OCCCCN3CCCCC3)cc2)c1 [CXN-9, 5-methyl-1-(4-(4-(piperidin-1-yl)butoxy)phenyl)pyridin-2(1H)-one]",EC50,[1],0.0698 µM
"Cc1ccc(=O)n(-c2ccc(OCCCCN(C)C)cc2)c1 [CXN-16, 1-(4-(4-(dimethylamino)butoxy)phenyl)-5-methylpyridin-2(1H)-one]",EC50,[1]; unit inferred,1.7 µM
"CC(=O)OCC[N+](C)(C)C [acetylcholine, reference compound]",relaxation,[4]; 250 nM 5-HT-pre-contracted endothelium-denuded arteries,5%
same,relaxation,[4]; 250 nM 5-HT-pre-contracted endothelium-intact arteries,42%
"Cc1ccc(=O)n(-c2ccccc2)c1 [pirfenidone, 5-methyl-1-phenylpyridin-2(1H)-one, reference compound]",maximal relaxation,[1],81.2±4.8%
same,EC50,[1]; cumulative addition,14.3 µM
same,EC50,[4]; [9],94 µM
same,maximal relaxation,[4]; [9],84.9±3.4%
